Measured values: PubChem BioAssay AID2060904 (Molecular Pharmacology Branch, DTP, NCI, 2025)

System: 349418-098-R-PDC complex spheroid viability
Assay: Anticancer human tumor 349418-098-R-PDC patient-derived lung adenocarcinoma cell line growth inhibition [RAS]
Conditions: for IC50: curve of first compound; for viability, T/C: stronger effect = lower value
How it was run: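 Tumour cells grown as complex spheroids with HUVEC endothelial cells and mesenchymal stem cells, treated with RAS pathway inhibitor combinations. Each agent spans half-log steps from near clinical Cmax, or 10 microM where Cmax is unknown.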

[1] = second compound 0.00316 µM, first compound 0.0316 µM
[2] = second compound 0.00316 µM, first compound 0.1 µM
[3] = second compound 0.00316 µM, first compound 0.316 µM
[4] = second compound 0.00316 µM, first compound 1 µM
[5] = second compound 0.01 µM, first compound 0.0316 µM
[6] = second compound 0.01 µM, first compound 0.1 µM
[7] = second compound 0.01 µM, first compound 0.316 µM
[8] = second compound 0.01 µM, first compound 1 µM
[9] = second compound 0.0316 µM, first compound 0.0316 µM
[10] = second compound 0.0316 µM, first compound 0.1 µM
[11] = second compound 0.0316 µM, first compound 0.316 µM
[12] = second compound 0.0316 µM, first compound 1 µM
[13] = second compound 0.1 µM, first compound 0.0316 µM
[14] = second compound 0.1 µM, first compound 0.1 µM
[15] = second compound 0.1 µM, first compound 0.316 µM
[16] = second compound 0.1 µM, first compound 1 µM
[17] = second compound 0.316 µM, first compound 0.0316 µM
[18] = second compound 0.316 µM, first compound 0.1 µM
[19] = second compound 0.316 µM, first compound 0.316 µM
[20] = second compound 0.316 µM, first compound 1 µM
[21] = second compound 1 µM, first compound 0.0316 µM
[22] = second compound 1 µM, first compound 0.1 µM
[23] = second compound 1 µM, first compound 0.316 µM
[24] = second compound 1 µM, first compound 1 µM
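Note: spheroids exposed to compound for seven days before viability readout.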

Q: `CC(Nc1ccc2c(c1)OCCn1cc(N3C(=O)OCC3C(F)F)nc1-2)C(N)=O` (centres undefined) + C=CC(=O)N1CCN(c2nc(OCC3CCCN3C)nc3c(F)c(-c4nc(N)cc(C)c4C(F)(F)F)c(Cl)cc23)C(C)C1 was tested. Which IC50 (second compound 0.00316 µM) did it give?
A: 72.4 nM

Q: What about the IC50 (second compound 0.01 µM) of the same compound?
A: 149 nM

Q: What about the IC50 (second compound 0.0316 µM) of the same compound?
A: 195 nM

Q: And the IC50 (second compound 0.1 µM)?
A: 114 nM

Q: What about the IC50 (second compound 0.316 µM) of the same compound?
A: 57.8 nM

Q: And the IC50 (second compound 1 µM)?
A: 129 nM

Q: And the viability, T/C [1]?
A: 66%

Q: And the viability, T/C [2]?
A: 44.4%

Q: What about the viability, T/C [3] of the same compound?
A: 23.6%

Q: What about the viability, T/C [4] of the same compound?
A: 16.7%

Q: And the viability, T/C (second compound 0.00316 µM, first compound 3.16 µM)?
A: 14.8%

Q: What about the viability, T/C (second compound 0.00316 µM, first compound 10 µM) of the same compound?
A: 9.03%

Q: And the viability, T/C [5]?
A: 82%

Q: And the viability, T/C [6]?
A: 57.6%

Q: And the viability, T/C [7]?
A: 36.1%

Q: What about the viability, T/C [8] of the same compound?
A: 17.8%

Q: What about the viability, T/C (second compound 0.01 µM, first compound 3.16 µM) of the same compound?
A: 14.9%

Q: What about the viability, T/C (second compound 0.01 µM, first compound 10 µM) of the same compound?
A: 8.95%

Q: And the viability, T/C [9]?
A: 91%

Q: And the viability, T/C [10]?
A: 69.8%

Q: And the viability, T/C [11]?
A: 36%

Q: And the viability, T/C [12]?
A: 17.1%

Q: What about the viability, T/C (second compound 0.0316 µM, first compound 3.16 µM) of the same compound?
A: 12.2%

Q: And the viability, T/C (second compound 0.0316 µM, first compound 10 µM)?
A: 13%

Q: What about the viability, T/C [13] of the same compound?
A: 46.2%

Q: What about the viability, T/C [14] of the same compound?
A: 58.9%

Q: What about the viability, T/C [15] of the same compound?
A: 30%

Q: What about the viability, T/C [16] of the same compound?
A: 19.3%

Q: What about the viability, T/C (second compound 0.1 µM, first compound 3.16 µM) of the same compound?
A: 17.6%

Q: And the viability, T/C (second compound 0.1 µM, first compound 10 µM)?
A: 11.4%

Q: And the viability, T/C [17]?
A: 55.8%

Q: And the viability, T/C [18]?
A: 44.9%

Q: What about the viability, T/C [19] of the same compound?
A: 30.3%

Q: What about the viability, T/C [20] of the same compound?
A: 19.4%

Q: What about the viability, T/C (second compound 0.316 µM, first compound 3.16 µM) of the same compound?
A: 14%

Q: And the viability, T/C (second compound 0.316 µM, first compound 10 µM)?
A: 10.7%

Q: And the viability, T/C [21]?
A: 61.2%

Q: And the viability, T/C [22]?
A: 57.3%

Q: And the viability, T/C [23]?
A: 28.4%

Q: What about the viability, T/C [24] of the same compound?
A: 24.4%

Q: And the viability, T/C (second compound 1 µM, first compound 3.16 µM)?
A: 16.6%

Q: What about the viability, T/C (second compound 1 µM, first compound 10 µM) of the same compound?
A: 11.3%

Q: Which IC50 (second compound 0.00316 µM) does the source give for `O=C(c1ccc(F)c(F)c1Nc1ccc(I)cc1F)N1CC(O)([C@@H]2CCCCN2)C1` + C=CC(=O)N1CCN(c2nc(OCC3CCCN3C)nc3c(F)c(-c4nc(N)cc(C)c4C(F)(F)F)c(Cl)cc23)C(C)C1 here?
A: < 3.16 nM

Q: And the IC50 (second compound 0.01 µM)?
A: < 3.16 nM

Q: What about the IC50 (second compound 0.0316 µM) of the same compound?
A: < 3.16 nM

Q: And the IC50 (second compound 0.1 µM)?
A: < 3.16 nM

Q: What about the IC50 (second compound 0.316 µM) of the same compound?
A: < 3.16 nM

Q: And the IC50 (second compound 1 µM)?
A: < 3.16 nM

Q: What about the viability, T/C (second compound 0.00316 µM, first compound 0.00316 µM) of the same compound?
A: 39.9%

Q: And the viability, T/C (second compound 0.00316 µM, first compound 0.01 µM)?
A: 32.3%

Q: And the viability, T/C [1]?
A: 28.5%

Q: And the viability, T/C [2]?
A: 12.9%

Q: What about the viability, T/C [3] of the same compound?
A: 5.88%

Q: And the viability, T/C [4]?
A: 4.12%

Q: What about the viability, T/C (second compound 0.01 µM, first compound 0.00316 µM) of the same compound?
A: 37.7%

Q: And the viability, T/C (second compound 0.01 µM, first compound 0.01 µM)?
A: 28.2%

Q: And the viability, T/C [5]?
A: 24.3%

Q: What about the viability, T/C [6] of the same compound?
A: 13.2%

Q: And the viability, T/C [7]?
A: 7.23%

Q: What about the viability, T/C [8] of the same compound?
A: 4.54%

Q: What about the viability, T/C (second compound 0.0316 µM, first compound 0.00316 µM) of the same compound?
A: 39%

Q: What about the viability, T/C (second compound 0.0316 µM, first compound 0.01 µM) of the same compound?
A: 32.8%

Q: What about the viability, T/C [9] of the same compound?
A: 28.5%

Q: What about the viability, T/C [10] of the same compound?
A: 15.1%

Q: What about the viability, T/C [11] of the same compound?
A: 6.99%

Q: What about the viability, T/C [12] of the same compound?
A: 4.79%

Q: And the viability, T/C (second compound 0.1 µM, first compound 0.00316 µM)?
A: 36.4%

Q: And the viability, T/C (second compound 0.1 µM, first compound 0.01 µM)?
A: 33.6%

Q: What about the viability, T/C [13] of the same compound?
A: 26.6%

Q: And the viability, T/C [14]?
A: 13.5%

Q: What about the viability, T/C [15] of the same compound?
A: 6.66%

Q: What about the viability, T/C [16] of the same compound?
A: 4.97%

Q: And the viability, T/C (second compound 0.316 µM, first compound 0.00316 µM)?
A: 29.1%

Q: And the viability, T/C (second compound 0.316 µM, first compound 0.01 µM)?
A: 32.5%

Q: And the viability, T/C [17]?
A: 32.4%

Q: What about the viability, T/C [18] of the same compound?
A: 12%

Q: What about the viability, T/C [19] of the same compound?
A: 7.61%

Q: And the viability, T/C [20]?
A: 5.27%

Q: What about the viability, T/C (second compound 1 µM, first compound 0.00316 µM) of the same compound?
A: 42.3%

Q: And the viability, T/C (second compound 1 µM, first compound 0.01 µM)?
A: 38.8%

Q: And the viability, T/C [21]?
A: 26.8%

Q: What about the viability, T/C [22] of the same compound?
A: 16.4%

Q: What about the viability, T/C [23] of the same compound?
A: 7.89%

Q: What about the viability, T/C [24] of the same compound?
A: 5%
